# PubChem BioAssay AID1996
# Conditions: buffer; pH 7.4; 200.0 µM
row,Structure (SMILES),solubility kinetic
1,COc1ccc2cc(C(=O)NCc3ccccc3)[nH]c2c1.Cl,1 µg/mL
2,Cc1ccc(OCc2csc(N)n2)cc1,> 33 µg/mL
3,O=C(Nc1cccc(Cl)c1)c1cncn1-c1ccc(F)cc1,45.4 µg/mL
4,O=S1(=O)N=C2CCCCCN2C(c2ccc(F)cc2)N1 (stereo not given),> 44.6 µg/mL
5,CCCNC(=O)N1CCC(c2ccc3c(c2)OCO3)CC1,38.8 µg/mL
6,CCN(CCO)c1ccc(N=Cc2c(O)n(C)c(=S)[nH]c2=O)cc1,3.2 µg/mL
7,COc1ccc(OC)c(S(=O)(=O)NCCCc2ccccc2)c1,27.4 µg/mL
8,Cc1cccc(Nc2nnc(SCC(=O)NCC3CCCO3)s2)c1C (stereo not given),> 56.8 µg/mL
9,CC(C)(C)S(=O)(=O)Cc1nc(-c2ccc(Cl)c(Cl)c2)cs1,< 0.8 µg/mL
10,CC(=O)CC1=NC(C)(C)Cc2ccccc21,17.2 µg/mL
11,O=C(NCCc1csc(-c2cccc(F)c2)n1)c1ccco1,> 47.5 µg/mL
12,Cc1ccc(C)c(NC(=O)CN(C)C(=O)c2ccc(Cl)nc2)c1,> 49.8 µg/mL
13,CC/C(O)=C1\C(=O)CCCC1=NCCc1nc2ccccc2[nH]1,> 46.7 µg/mL
14,O=C(Nc1ccccc1Cl)OC1CN2CCC1CC2 (stereo not given),38.1 µg/mL
15,CCOC(=O)c1oc2nc(CC(C)C)c3c(c2c1N)CCCC3,1.4 µg/mL
16,CCOc1ccc(CC(=O)Nc2nccs2)cc1OCC,31.7 µg/mL
17,CC(C)NC(=O)C(=O)c1cn(C)c2ccccc12,33.3 µg/mL
18,COc1cccc(OC)c1C(=O)Nc1ccc(Br)c(C(=O)c2ccccc2)c1,4.2 µg/mL
19,CN(CCc1ccccc1)C1CCCN(S(=O)(=O)N(C)C)C1 (stereo not given),> 48.8 µg/mL
20,CC(C)[C@H](NC(=O)c1ccccc1)C(=O)NC1CCCCCCC1,1.8 µg/mL

row,Structure (SMILES),solubility kinetic
1,O=S(=O)(NCCC1=CCCCC1)c1ccccc1Cl,22 µg/mL
2,CCN(CC(=O)Nc1ccccc1Br)C1CCCCC1,9.1 µg/mL
3,COc1ccccc1NC(=O)COc1cccnc1[N+](=O)[O-],4.3 µg/mL
4,COC(=O)c1cccc(NC(=O)c2ccccc2)c1,35.7 µg/mL
5,N/C(=N\OC(=O)C1CC1)c1ccc([N+](=O)[O-])s1,26.4 µg/mL
6,CC1(C)Cc2cccc(C(=O)Nc3ccc(F)cc3F)c2O1,0.7 µg/mL
7,COc1ccccc1N1CCN(CC(O)c2c(C)[nH]c3ccccc23)CC1 (stereo not given),> 54.8 µg/mL
8,N=C1SCC(=O)N1c1ncc(Cc2ccccc2Cl)s1,2.2 µg/mL
9,COC(=O)c1cnc(Nc2cccc(C(F)(F)F)c2)c([N+](=O)[O-])c1,< 0.2 µg/mL
10,c1ccc(CCc2ccncc2)cc1,13 µg/mL
11,COC(=O)C1=C(C)OC(N)=C(C#N)C12C(=O)Nc1ccccc12 (stereo not given),> 46.7 µg/mL
12,Fc1ccc(CNCCc2c[nH]c3ccccc23)cc1,> 40.2 µg/mL
13,COc1ccc(OC(=O)NCCc2ccccc2)cc1,24.3 µg/mL
14,O=C(O)C1CCCN1C(=O)NC1CCCCC1 (stereo not given),30.4 µg/mL
15,CN(C)CCO[C@@H](c1ccc(Cl)cc1)c1ccccn1.O=C(O)/C=C\C(=O)O,> 61 µg/mL
16,CC(=O)N=c1c(C#N)cc2c(=O)n3cccc(C)c3nc2n1Cc1ccco1,5.1 µg/mL
17,Br.CC(C)(C)c1ccc(C2=CSC3=NCCN23)cc1,49.4 µg/mL
18,COc1ccccc1CC(=O)Nc1ncc(C)s1,8.4 µg/mL
19,N#Cc1nc(-c2ccccc2F)oc1N1CCCCC1,2.3 µg/mL
20,COc1ccccc1NC(=O)NCCN1CCCCC1,> 41.6 µg/mL

row,Structure (SMILES),solubility kinetic
1,CCC(C)C(=O)Nc1ccc(S(=O)(=O)N2CCCC2)cc1 (stereo not given),42.3 µg/mL
2,CCC(C)c1ccccc1NC(=O)c1[nH]c(C)c(C(C)=O)c1C (stereo not given),2 µg/mL
3,CC1CCCC(NC(=O)COC(=O)c2ccc([N+](=O)[O-])o2)C1C (stereo not given),18.4 µg/mL
4,CC(C)C(=O)Nc1nc(-c2ccc([N+](=O)[O-])cc2)cs1,2.6 µg/mL
5,Cc1ccc(CC(=O)NC2CCCc3ccccc32)cc1C (stereo not given),3.2 µg/mL
6,CC(=NCc1ccco1)c1c(O)n(-c2ccccc2C)c(=O)[nH]c1=O,> 50.9 µg/mL
7,COc1nc(N(C)C)nc(N(C#N)S(=O)(=O)c2ccc(C)cc2)n1,51.7 µg/mL
8,Cc1cc2cc(CNC(=O)Cc3ccc([N+](=O)[O-])cc3)ccc2n1C,0.3 µg/mL
9,Cc1ccc(C(=O)N2C(=O)c3cccc(N)c3C2=O)o1,3.9 µg/mL
10,c1ccc2nc3c(cc2c1)CCCCC3,3.4 µg/mL
11,O=C(COc1cccc(C(F)(F)F)c1)NCC(c1ccco1)N1CCCC1 (stereo not given),45.1 µg/mL
12,Cc1ccc(Cl)cc1NC(=O)C1C2CCC(O2)C1C(=O)O (stereo not given),> 46.5 µg/mL
13,COc1ccc(OC)c2nc(-c3ccc4c(c3)OCO4)ccc12,< 0.7 µg/mL
14,CC(C)c1ccc(OCc2ccc(C(=O)N3CCCC3)o2)cc1,26.7 µg/mL
15,Cc1ccc(S(=O)(=O)NCC(=O)OCC(=O)Nc2cccc(S(=O)(=O)N3CCOCC3)c2)cc1,> 76.7 µg/mL
16,Cc1ccc(-n2c(=O)[nH]c3ncccc3c2=O)cc1,6.9 µg/mL
17,COc1ccc(C2CC(=O)C(C=NCCO)=C(O)C2)cc1 (stereo not given),38 µg/mL
18,COc1ccc(-c2cc(=O)[nH]c3ccccc23)cc1,4.6 µg/mL
19,CC(C)OC(=O)/C(=C\c1ccccc1)NC(=O)c1ccccc1,> 46.4 µg/mL
20,CCOC(=O)c1sc(=S)n(CC)c1NC(=O)c1ccccc1C,3.4 µg/mL
